Counter-ions that a name gives are not always drawn.
How the values were obtained:
Assay type in all cases: physicochemical
[1] = Rheological analysis of the gels (gel hardness, complex modulus G*); settings: organogelator 5% (w/w) in safflower oil; 25±0.1° C., 0.1 to 10 Hz
Protocol: (§1) Organogelators at a concentration of 5% (w/w) were solubilized in safflower oil at high temperature (>80° C.) and gels were obtained by cooling the mixture.
Rheological analysis of the gels was performed to determine the gel hardness, by measuring the complex modulus G*. The rheological properties of the organogels were measured by an AR2000 (Advanced Rheometer 2000, TA Instruments, New Castle, Del.), with parallel plate geometry (diameter of 40 mm). Organogels were heated until reaching TGS and they were placed between the parallel plates. The final thickness of the material coat between the plates was 650 to 750 μm. The film was cooled at 4° C. to form the gel. In the linear regime of the gel, the complex modulus G* have been measured as a function of the angular frequency (0.1 to 10 Hz) at 25±0.1° C. G*=(G′^2+G″^2)^0.5 with G′ the storage modulus and G″ the loss modulus.

[2] = Differential scanning calorimetry (DSC) of organogels in safflower oil; settings: organogelator 5% (w/w) in safflower oil; for H (enthalpy of the gel-solution transition): area of endothermic peak; for TGS (gel-solution transition temperature): maximum of endothermic peak
Protocol: as §1
The gels were characterized by differential scanning calorimetry (DSC) to obtain gel-solution transition temperatures (TGS) and enthalpy values of the transition (ΔH). Briefly, thermograms of gels were collected on a 2910 TA Instruments DSC system (New Castle, Del.). The instrument was calibrated with indium. Gels were weighed into aluminum pans that were subsequently sealed. Temperature was scanned between 5 and 90° C. at 10° C./min. The reported gel-sol transition temperatures (TGS) and enthalpies (ΔH) corresponded to the maximum and the area of the endothermic peaks respectively.

[3] = Stability after sterilization by γ-radiation, by 1H-NMR; settings: γ-radiation at 25 kGy on dry ice, 60Co source
Protocol: All formulation components were sterilized individually. B-TyrOCH3 and rivastigmine hydrogen tartrate (Riv) were sterilized on dry ice by γ-radiation at 25 kGy using a ^60Co source (Nordion Inc., Laval, QC, Canada). Stability of the organogelator and drug after sterilization was confirmed by ^1H-NMR. The safflower oil and NMP were filtered on 0.2-μm polytetrafluoroethylene filters. Safflower oil, B-TyrOCH3 (5% w/w) and Rivastigmine were mixed at 85° C. until solubilisation of the organogelator. N-methylpyrrolidone (NMP) (3% w/w) was added at high temperature, mixed and gel formulation syringes (20 G needle) were prepared, under aseptic conditions and put on ice during 15 minutes and at room temperature before injection. A control formulation was prepared without the organogelator in the same condition (oil formulation).

Structure (SMILES) | G* (complex modulus, gel hardness) [1] | H (enthalpy of the gel-solution transition) [2] | TGS (gel-solution transition temperature) [2] | Stability after sterilization [3]
CCCCCCCCCCCCCCCCCCCCCC(=O)N[C@@H](Cc1ccccc1)C(=O)OC [B-Phe-OCH3] | 6 kPa | 14.6 kcal/mol | 53 °C | 
CCCCCCCCCCCCCCCCCCCCCC(=O)N[C@@H](Cc1ccc(O)cc1)C(=O)OC [B-Tyr-OCH3, N-Behenoyl L-tyrosine methyl ester] | 37.6 kPa | 17 kcal/mol | 74 °C | 
CCCCCCCCCCCCCCCCCC(=O)N[C@@H](Cc1ccccc1)C(=O)OC [S-Phe-OCH3, N-stearoyl L-phenylalanine methyl ester] | 6.1 kPa | 9.08 kcal/mol | 43 °C | 
CCCCCCCCCCCCCCCCCC(=O)N[C@@H](Cc1c[nH]c2ccccc12)C(=O)O [S-Trp-OH, N-stearoyl L-tryptophan] | <0.1 kPa | 3.82 kcal/mol | 122 °C | 
CCCCCCCCCCCCCCCCCC(=O)N[C@@H](Cc1ccc(O)cc1)C(=O)O [S-Tyr-OH, N-stearoyl L-tyrosine] | 5 kPa | 4.3 kcal/mol | 127 °C | 
CCN(C)C(=O)Oc1cccc([C@H](C)N(C)C)c1 [rivastigmine hydrogen tartrate] |  |  |  | confirmed
CCCCCCCCCCCCCCCCCC(=O)N[C@@H](Cc1ccc(O)cc1)C(=O)OC [S-Tyr-OCH3, N-Stearoyl L-tyrosine methyl ester] | 15.2 kPa | 12 kcal/mol | 65 °C | 
CCCCCCCCCCCCCCCCCC(=O)N[C@@H](Cc1c[nH]c2ccccc12)C(=O)OC [S-Trp-OCH3, N-stearoyl L-tryptophan methyl ester] | <0.1 kPa | 5.5 kcal/mol | 56 °C | 
CCCCCCCCCCCCCCCCCC(=O)NC(C)C(=O)OC (stereo not shown) [S-Ala-OCH3] | 5 kPa | 13.1 kcal/mol | 60 °C | 
